Assay results reported in patent US7786141B2 (Vertex Pharmaceuticals Incorporated, priority 2004, dated 2010).
Like-named read-outs stand apart in the source and are kept apart here.

Legend:
[1] = target: T1, M4 muscarinic receptor (Homo sapiens, UniProt P08173); assay: Functional mobilization of intracellular calcium (FLIPR) in M4-CHO cells; assay type: cell-based
T1 construct: expressed in transfected cells; host or cells: CHO (M4-CHO)
T1 sequence (P08173 1-479): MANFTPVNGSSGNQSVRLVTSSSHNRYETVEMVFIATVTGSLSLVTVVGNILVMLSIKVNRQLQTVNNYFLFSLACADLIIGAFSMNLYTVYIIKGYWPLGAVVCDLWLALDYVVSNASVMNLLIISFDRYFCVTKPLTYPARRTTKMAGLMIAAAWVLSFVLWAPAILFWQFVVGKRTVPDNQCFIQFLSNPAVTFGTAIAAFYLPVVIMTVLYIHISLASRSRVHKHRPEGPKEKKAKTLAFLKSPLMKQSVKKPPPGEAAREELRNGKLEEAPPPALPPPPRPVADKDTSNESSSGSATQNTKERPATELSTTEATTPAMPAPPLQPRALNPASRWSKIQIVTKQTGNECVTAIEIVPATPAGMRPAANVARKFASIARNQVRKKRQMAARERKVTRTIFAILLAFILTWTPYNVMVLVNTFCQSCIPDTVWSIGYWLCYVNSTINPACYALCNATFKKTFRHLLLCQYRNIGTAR
Procedure, shortened: (§1)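 CHO cells stably expressing human M1 or M4 receptor were loaded with Fluo-3 AM (or Calcium 3 dye) in Hepes-buffered saline, pH 7.4, with 1 mM probenecid, 0.5% final DMSO. Agonist mode: compound added directly; antagonist mode: 15 min preincubation before carbachol at EC80. FLIPR fluorescence recorded 60 sec.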

[2] = target: T2, M1 muscarinic receptor (Homo sapiens, UniProt P11229); assay: Functional mobilization of intracellular calcium (FLIPR) in M1-CHO cells; assay type: cell-based
T2 construct: expressed in transfected cells; host or cells: CHO (M1-CHO)
T2 sequence (P11229 1-460): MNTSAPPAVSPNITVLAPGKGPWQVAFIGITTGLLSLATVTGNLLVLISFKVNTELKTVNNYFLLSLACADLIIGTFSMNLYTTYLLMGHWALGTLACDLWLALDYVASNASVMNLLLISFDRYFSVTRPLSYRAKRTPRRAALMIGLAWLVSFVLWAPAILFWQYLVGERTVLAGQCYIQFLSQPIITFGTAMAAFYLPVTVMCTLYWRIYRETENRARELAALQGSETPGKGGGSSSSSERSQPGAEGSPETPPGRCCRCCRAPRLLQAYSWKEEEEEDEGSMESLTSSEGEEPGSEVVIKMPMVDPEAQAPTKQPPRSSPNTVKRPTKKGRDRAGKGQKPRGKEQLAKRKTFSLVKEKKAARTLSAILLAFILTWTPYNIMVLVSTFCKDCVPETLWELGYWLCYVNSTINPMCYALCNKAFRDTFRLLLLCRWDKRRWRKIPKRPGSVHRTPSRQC
Procedure, shortened: as §1

[3] = Table 4, 100% efficacy is the maximum response obtained with the Carbachol control
[4] = Table 4, M4 receptor, calcium mobilization (FLIPR)
[5] = Table 4, M1 receptor, calcium mobilization (FLIPR)
[6] = Table 4, modulating M4 receptor
[7] = Table 4, modulating M1 receptor
[8] = M4 receptor, calcium mobilization
[9] = M4 receptor, calcium mobilization, read-out: M4 Efficacy
[10] = M1 receptor, calcium mobilization
[11] = M1 receptor, calcium mobilization, read-out: M1 Efficacy

| Structure (SMILES) | Emax [1, 3] [%] | Emax [2, 3] [%] | M4 Activity [1, 6] | M1 Activity [2, 7] | M4 Activity [1, 8] | Emax [1, 9] [%] | M1 Activity [2, 10] | Emax [2, 11] [%] | other results |
| --- | --- | --- | --- | --- | --- | --- | --- | --- | --- |
| Cc1ccc2c(c1)C1(CCN(C3CC4CCC3C4)CC1)CN2C(=O)c1ccccc1 (stereo not drawn) [compound 933] | < 25 | < 25 |  |  |  |  |  |  | M4 Activity [1, 4]: x (activity was measured to be greater than 5.0 μM); M1 Activity [2, 5]: x (activity was measured to be greater than 5.0 μM) |
| CC(=O)CN1CC2(CCN(C3CC4CCC(C4)C3)CC2)c2cc(F)ccc21 (stereo not drawn) [compound 462] | 25 to 100 | 25 to 100 | xxx (activity was measured to be less than 2.0 μM) | xxx (activity was measured to be less than 2.0 μM) |  |  |  |  |  |
| CCNC(=O)N1CC2(CCN(C3CC4CCC(C3)N4C(=O)OCC)CC2)c2cc(F)ccc21 (stereo not drawn) [compound 255] |  |  |  |  | x (activity was measured to be greater than 1.0 μM) | < 65 | x (activity was measured to be greater than 1.0 μM) | < 65 |  |
| CCOC(=O)C1CCC(N2CCC3(CC2)CN(C(C)=O)c2ccc(F)cc23)CC1 (stereo not drawn) [compound 228] |  |  |  |  | x (activity was measured to be greater than 1.0 μM) | < 65 | x (activity was measured to be greater than 1.0 μM) | < 65 |  |
| O=C(O[C@@H]1CCOC1)N1C2CCC1CC(N1CCC3(CC1)COc1ccc(F)cc13)C2 (stereo partly drawn) [compound 338] |  |  |  |  | x (activity was measured to be greater than 1.0 μM) | < 65 | x (activity was measured to be greater than 1.0 μM) | < 65 |  |
| CC(=O)N1CC2(CCN(CC3CC4CCC3C4)CC2)c2cc(C)ccc21 (stereo not drawn) [compound 118] |  |  |  |  | x (activity was measured to be greater than 1.0 μM) | < 65 | xxx (activity was measured to be less than 0.1 μM) | 65 to 85 |  |
| COc1cccc(C(=O)N2CCC(N3CCC4(CC3)CN(C(=O)N(C)C)c3ccc(F)cc34)CC2)c1 [compound 770] | < 25 | 25 to 100 | xx (activity was measured to be between 2.0 μM and 5.0 μM) | xxx (activity was measured to be less than 2.0 μM) |  |  |  |  |  |
| CCCOC(=O)N1C2CCC1CC(N1CCC3(CC1)CN(C(C)=O)c1ccccc13)C2 (stereo not drawn) [compound 507] | 25 to 100 | 25 to 100 | xxx (activity was measured to be less than 2.0 μM) | xxx (activity was measured to be less than 2.0 μM) |  |  |  |  |  |
| Cc1cc(C(=O)N2CC3(CCN(C4CC5CCC(C4)N5C(=O)OC(C)C)CC3)c3cc(F)ccc32)nn1C (stereo not drawn) [compound 24] |  |  |  |  | x (activity was measured to be greater than 1.0 μM) | < 65 | xx (activity was measured to be between 0.1 μM and 1.0 μM) | < 65 |  |
| CC(=O)N[C@@H]1CC2(CCN(C3CCC3)CC2)c2ccccc21 [compound 682] | < 25 | < 25 | x (activity was measured to be greater than 5.0 μM) | x (activity was measured to be greater than 5.0 μM) |  |  |  |  |  |
| Clc1ccc2c(c1)C1(CCN(C3CC4CCC3C4)CC1)CN2 (stereo not drawn) [compound 224] |  |  |  |  | x (activity was measured to be greater than 1.0 μM) | < 65 | x (activity was measured to be greater than 1.0 μM) | 65 to 85 |  |
| CCOC(=O)N1CCC(N2CCC3(CC2)CN(C(C)=O)c2ccc(Br)cc23)CC1 [compound 769] | 25 to 100 | 25 to 100 | xxx (activity was measured to be less than 2.0 μM) | xxx (activity was measured to be less than 2.0 μM) |  |  |  |  |  |
| CN(C)C(=O)N1CC2(CCN(C3CCN(c4nccnc4C#N)CC3)CC2)c2cc(F)ccc21 [compound 497] | 25 to 100 | 25 to 100 | xx (activity was measured to be between 2.0 μM and 5.0 μM) | xx (activity was measured to be between 2.0 μM and 5.0 μM) |  |  |  |  |  |
| COC(=O)N1CCCC(N2CCC3(CC2)CN(C(=O)N(C)C)c2ccc(F)cc23)CC1 (stereo not drawn) [compound 628] | 25 to 100 | 25 to 100 | xxx (activity was measured to be less than 2.0 μM) | xxx (activity was measured to be less than 2.0 μM) |  |  |  |  |  |
| O=C1CC2(CCN(CC3CC4C=CC3C4)CC2)c2cc(Cl)ccc21 (stereo not drawn) [compound 826] | 25 to 100 | 25 to 100 |  |  |  |  |  |  | M4 Activity [1, 4]: xxx (activity was measured to be less than 2.0 μM); M1 Activity [2, 5]: xxx (activity was measured to be less than 2.0 μM) |
| CCCOC(=O)N1CCC(CN2CCC3(CC2)C[C@H](NC(C)=O)c2ccccc23)CC1 [compound 36] |  |  |  |  | xx (activity was measured to be between 0.1 μM and 1.0 μM) | > 85 | xxx (activity was measured to be less than 0.1 μM) | 65 to 85 |  |
| CC(=O)N[C@H]1CC2(CCN(C3CCCCCC3)C2)c2ccc(F)cc21 (stereo partly drawn) [compound 823] | 25 to 100 | 25 to 100 |  |  |  |  |  |  | M4 Activity [1, 4]: xx (activity was measured to be between 2.0 μM and 5.0 μM); M1 Activity [2, 5]: xx (activity was measured to be between 2.0 μM and 5.0 μM) |
| CC(=O)N1CC2(CCN(C3CCN(C(=O)OC(C)C)C3)CC2)c2cc(F)ccc21 (stereo not drawn) [compound 634] | < 25 | < 25 | x (activity was measured to be greater than 5.0 μM) | x (activity was measured to be greater than 5.0 μM) |  |  |  |  |  |
| O=C1CCCN1[C@H]1CCC2(CCN(C3CCCCCC3)CC2)c2ccccc21 [compound 945] | 25 to 100 | 25 to 100 |  |  |  |  |  |  | M4 Activity [1, 4]: xxx (activity was measured to be less than 2.0 μM); M1 Activity [2, 5]: xxx (activity was measured to be less than 2.0 μM) |
| CCOC(=O)N1CCC(CN2CCC3(CC2)CN(C(C)=O)c2c(F)cccc23)CC1 [compound 307] |  |  |  |  | x (activity was measured to be greater than 1.0 μM) | < 65 | xx (activity was measured to be between 0.1 μM and 1.0 μM) | 65 to 85 |  |
| COCCOC(=O)N1CCC(CN2CCC3(CC2)C[C@H](NC(C)=O)c2ccccc23)CC1 [compound 412] |  |  |  |  |  |  |  |  | EC50 ([1]; M4-CHO cells, calcium mobilization (FLIPR)): > 1000 nM; Emax ([1]; M4-CHO cells, calcium mobilization (FLIPR), read-out: M4 Efficacy): < 65%; EC50 ([2]; M1-CHO cells, calcium mobilization (FLIPR)): 100 to 1000 nM; Emax ([2]; M1-CHO cells, calcium mobilization (FLIPR), read-out: M1 Efficacy): < 65% |
